The source of these data is ChEMBL document CHEMBL1201862, “PubChem BioAssay data set” (2004).

Some test systems named below: MDA-MB-435; OVCAR-5; SF-295; MDA-N; BT-549; NCI-H460; SF-539; SK-OV-3; Malme-3M; MDA-MB-231; MCF7; HL-60; TK-10; IGROV-1; HCT-15; T47D; SK-MEL-5; LOX IMVI; NCI-H23; CCRF-CEM.
Common to all, as to assay: growth of human tumour cells (NCI), 48 h

Molecules are shown by their SMILES. Values joined by “and” are separate entries in the source; they are usually repeats but may differ in a detail not shown here. Equal values may be shown once.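 Values below derive from 48-hour exposures of cells grown in 96-well plates, with endpoints linearly interpolated between the two concentrations bracketing the appropriate inhibition level. GI50 = concentration required for 50% inhibition of growth.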 Active and inactive are the calls of the source. No stated cut-off is given here; in the data, active = GI50 up to about 1.1 µM and inactive = higher.

In the case of `COc1ccc(C2Oc3c(OC)cc(CCCO)cc3C2CO)cc1OC` (configuration not stated), the GI50 was 70 µM (inactive) and 93.5 µM (inactive) in the assay on MDA-MB-435; > 100 µM (inactive) in the assay with OVCAR-5; 50.4 µM (inactive) and 70.8 µM (inactive) with SF-295; 93.1 µM (inactive) and 71.4 µM (inactive) in the assay on MDA-N; 96.2 µM (inactive) and 50.7 µM (inactive) in the assay with BT-549; > 100 µM (inactive) in the assay with NCI-H460. For the same compound, the GI50 with SF-539 is > 100 µM (inactive); in the assay on SK-OV-3, > 100 µM (inactive); with Malme-3M, > 100 µM (inactive) and 50.7 µM (inactive); in the assay on MDA-MB-231 it was 99.3 µM (inactive); with MCF7, 27.6 µM (inactive) and 44.7 µM (inactive); in the assay with HL-60 it was 43.8 µM (inactive) and 65.3 µM (inactive). Moreover, the GI50 with TK-10 was > 100 µM (inactive); in the assay with IGROV-1, > 100 µM (inactive); in the assay with HCT-15, greater than 100 µM; in the assay on T47D, 10.9 µM (inactive) and 18.3 µM (inactive).
As to `O=c1[nH]cc(NCCCl)c(=O)[nH]1`, the GI50 in the assay on MDA-MB-435, with SK-MEL-5, in the assay on LOX IMVI, with OVCAR-5, in the assay with SF-295 and in the assay with MDA-N was > 100 µM (inactive) throughout. In addition, the GI50 in the assay on BT-549, with NCI-H460, in the assay on NCI-H23, in the assay with SF-539, in the assay with SK-OV-3 and in the assay on Malme-3M was > 100 µM (inactive) each time. Also, the GI50 in the assay with CCRF-CEM is > 100 µM (inactive); in the assay on MDA-MB-231, > 100 µM (inactive); with MCF7 it was > 100 µM (inactive); in the assay on TK-10, > 100 µM (inactive); in the assay with IGROV-1, > 100 µM (inactive); in the assay with HCT-15, greater than 100 µM. Moreover, the GI50 with T47D was > 100 µM (inactive).
Take `CC(=O)OC[C@]1(C(=O)C(O)c2ccoc2)[C@H](C)CC[C@@]23COC(=O)C2=CCC[C@@H]31` (some centres not stated): the GI50 in the assay with MDA-MB-435, in the assay on SK-MEL-5, with LOX IMVI, in the assay on OVCAR-5, with SF-295 and with MDA-N was > 10 µM (inactive) each time. Besides, the GI50 in the assay with BT-549, in the assay with NCI-H460, with NCI-H23, in the assay on SF-539, with SK-OV-3 and with CCRF-CEM was > 10 µM (inactive) in each case. The GI50 with MDA-MB-231 was > 10 µM (inactive); in the assay on MCF7, > 10 µM (inactive); in the assay on HL-60 it was > 10 µM (inactive); in the assay with TK-10, > 10 µM (inactive); in the assay on IGROV-1 it was > 10 µM (inactive); with HCT-15, greater than 10 µM. Besides, the GI50 with T47D is > 10 µM (inactive).
Consider `COC(=O)c1c(O)ccc2[nH]c3c(O)c4ccccc4cc3c12`, for which the GI50 in the assay on MDA-MB-435 was 27.9 µM (inactive); in the assay on SK-MEL-5 it was 24 µM (inactive); in the assay with OVCAR-5, 76.9 µM (inactive); with SF-295, 18.9 µM (inactive); with MDA-N, 28.4 µM (inactive); in the assay on BT-549, 39.3 µM (inactive). The GI50 is 24.1 µM (inactive) with NCI-H460; 23 µM (inactive) in the assay on NCI-H23; 21.4 µM (inactive) in the assay on SF-539; 33.6 µM (inactive) in the assay with SK-OV-3; 20.2 µM (inactive) with Malme-3M; 20.8 µM (inactive) in the assay on CCRF-CEM. Besides, the GI50 in the assay with MDA-MB-231 was 75 µM (inactive); with MCF7, 16 µM (inactive); with HL-60, 14.1 µM (inactive); in the assay on TK-10, 34.2 µM (inactive); in the assay with IGROV-1, 16.7 µM (inactive); in the assay on HCT-15, 20.5 µM. In addition, the GI50 with T47D was 15.1 µM (inactive).
For `CC1C2CC(CC2N)C1(C)C` (configuration not stated), the GI50 in the assay with MDA-MB-435, in the assay on SK-MEL-5, in the assay on OVCAR-5, in the assay on SF-295, in the assay with MDA-N and in the assay with BT-549 was > 100 µM (inactive) each time. Also, the GI50 in the assay with NCI-H460, in the assay on NCI-H23, in the assay with SF-539, with SK-OV-3, in the assay with Malme-3M and in the assay on CCRF-CEM was > 100 µM (inactive) throughout. Further, the GI50 in the assay on MDA-MB-231, in the assay with MCF7, in the assay with HL-60, in the assay on TK-10, in the assay on IGROV-1 and with T47D was > 100 µM (inactive) throughout.
Turning to `O=C(N/N=C\c1cccc2ccccc12)Nc1cccc2ccccc12`, the GI50 in the assay on MDA-MB-435 was 3.95 µM (inactive); with SK-MEL-5 it was 13.1 µM (inactive); in the assay on LOX IMVI it was 22.9 µM (inactive); with OVCAR-5 it was > 100 µM (inactive); in the assay on MDA-N, 3.84 µM (inactive); with BT-549, 27.7 µM (inactive). For the same compound, the GI50 with NCI-H460 was 5.43 µM (inactive); in the assay on NCI-H23, 23.7 µM (inactive); in the assay with SF-539 it was 10.7 µM (inactive); in the assay on Malme-3M it was 35.2 µM (inactive); with CCRF-CEM, 18.2 µM (inactive); in the assay on MDA-MB-231, 16 µM (inactive). Also, the GI50 was 7.8 µM (inactive) with MCF7; 4.32 µM (inactive) in the assay with HL-60; 19.9 µM (inactive) in the assay with TK-10; 25.9 µM (inactive) in the assay on IGROV-1; 5.73 µM in the assay with HCT-15; 65.9 µM (inactive) in the assay with T47D.
Consider `Cc1ccc2[nH]c3c(c2c1)C1CCC(C(C)(C)C)CC1C1C(=O)N(c2ccc(Oc4ccccc4)cc2)C(=O)C31` (configuration not stated), for which the GI50 was 58.6 µM (inactive) in the assay on MDA-MB-435; > 92.5 µM (inactive) in the assay with SK-MEL-5; 24.2 µM (inactive) in the assay with LOX IMVI; 26.3 µM (inactive) with OVCAR-5; 26.6 µM (inactive) in the assay on SF-295; 50 µM (inactive) in the assay with MDA-N. Moreover, the GI50 is 20 µM (inactive) with BT-549; 16 µM (inactive) with NCI-H460; 19.3 µM (inactive) in the assay with NCI-H23; 17.7 µM (inactive) in the assay on SK-OV-3; 12.3 µM (inactive) with Malme-3M; 2.63 µM (inactive) in the assay on CCRF-CEM. The GI50 was 20.3 µM (inactive) in the assay on MDA-MB-231; 56.9 µM (inactive) in the assay on MCF7; 2.57 µM (inactive) in the assay on HL-60; 20 µM (inactive) in the assay on TK-10; 30.8 µM (inactive) in the assay on IGROV-1; 56.8 µM with HCT-15. Moreover, the GI50 with T47D was 16.2 µM (inactive).
As to `CCC/C(Cl)=N/OC(=O)Nc1cccc(F)c1`, the GI50 is 11.9 µM (inactive) in the assay on MDA-MB-435; 5.79 µM (inactive) with SK-MEL-5; 1.91 µM (inactive) with LOX IMVI; 19.1 µM (inactive) with OVCAR-5; 17.5 µM (inactive) with SF-295; 9.46 µM (inactive) with MDA-N. Moreover, the GI50 was 2.32 µM (inactive) in the assay with BT-549; 19 µM (inactive) in the assay on NCI-H460; 16.7 µM (inactive) in the assay on NCI-H23; 17.3 µM (inactive) in the assay with SK-OV-3; 1.73 µM (inactive) in the assay with Malme-3M; 0.526 µM (active) in the assay on CCRF-CEM. The GI50 was 13.1 µM (inactive) with MDA-MB-231; 2.77 µM (inactive) with MCF7; 1.28 µM (inactive) in the assay with HL-60; 2.38 µM (inactive) in the assay on TK-10; 13.2 µM (inactive) with IGROV-1; 1.85 µM in the assay on HCT-15. Also, the GI50 in the assay on T47D was 2.71 µM (inactive).
